Test results from patent publication US20080103205A1, “Pesticidal compositions and methods of use” (priority 2006, published 2008).
“And” between values parts separate entries of the source, which are not always exact repeats. Equal values may be shown once. Read-outs that look alike come from different tables or passages of the source.

Tests used:
[1] = tested on: European corn borer (Ostrinia nubilalis); experiment: Diet surface test on European corn borer larvae (2nd instar); type: in vivo; settings: for mortality at 6.25 ppm / mortality at 12.5 ppm / mortality at 25 ppm / mortality at 50 ppm: Ostrinia nubilalis, read-out: % Mortality
Experimental: Concentrations of 6.25, 12.5, 25, or 50 ppm AT blocker were prepared in 95% ethyl alcohol (EtOH). 95% EtOH alone served as control. European corn borer (ECB) diet prepared from the powdered diet supplied by French Agricultural Research, Inc. Diet (1-2 ml) was poured into small cups and allowed to cool to room temperature. Test solution (100 ul) was placed onto the diet surface and allowed to evaporate the solvent. Each concentration of chemical had 2 sets of 10 cups each. One late 2nd instar larva was placed in each cup and covered with lid having perforations for aeration. Cups were placed in an incubator for 7 days at 25±1° C. and 70±5% RH. After seven days, the weight of each larva was taken and any mortality was recorded. Then, the surviving larvae were transferred to fresh diet cups holding sufficient diet (5-6 ml) without chemicals and incubated at 25±1° C. and 70±5% RH until pupation. Weights of larvae were taken 14 days after transferring to fresh diet (21 days after start of treatment). Finally, the number of days until pupation was recorded.
Anion transporters caused larval death and a reduction in weight gain within 7 days exposure. The effect persisted for 2 weeks time on untreated diet, but total time to pupation was relatively unaffected.

[2] = tested on: Meloidogyne incognita eggs; experiment: M. incognita egg hatching; type: in vivo
Experimental: Meloidogyne incognita (plant parasitic nematode) eggs were collected from tomato plant roots and were suspended in water. The solution was either diluted or concentrated to adjust the egg load to about 5000/ml. AT stock solutions prepared in DMSO and 300 ul of test solution was placed in a well, along with 20 ul of aqueous solution containing eggs. The number of eggs in 20 ul solution ranged from 115 to 143 (n=10). Each treatment (2, 5, 10, 20, or 40 ppm) was replicated 5 times. Microplates were sealed with Parafilm™ and incubated at room temperature. Similar tests conducted with 0.2% DMSO alone served as controls. Egg hatching was monitored at 24, 72, 120, and 168 hr after incubation. Both moving and non-moving nematodes were counted to arrive at the number of eggs hatched. Proportion of egg hatch was calculated as the number of juveniles divided by total number of eggs.
VSCC blockers effect on M. incognita egg hatching is shown in the following tables where % hatched is rounded to the nearest percentage point and where “% C*” is % hatch, normalized to control.

[3] = 6.25 ppm, 21 days after feeding
[4] = 12.5 ppm, 21 days after feeding
[5] = 50 ppm, 7 days after feeding, 10 larvae treated
[6] = 50 ppm, 21 days after feeding, 10 larvae treated

O=S(=O)(O)c1cc(N=C=S)ccc1/C=C/c1ccc(N=C=S)cc1S(=O)(=O)O [DIDS, trans-4,4′-diisothiocyanatostilbene-2,2′-disulfonic acid, reference compound]
Days for pupation ([1]; 6.25 ppm): 24.6 days and 25.0 days | % wt reduction to control ([1]; 6.25 ppm, 7 days after feeding): 12.76% and 9.12% | Mean wt of survived larvae, mg ([1]; 6.25 ppm, 7 days after feeding): 41.56 (10) mg and 44.84 (10) mg | No. dead ([1]; 6.25 ppm, 7 days after feeding, 10 larvae): 0 | % wt reduction to control [1, 3]: 5.69% and 7.74% | Mean wt of survived larvae, mg [1, 3]: 156.66 (10) mg and 135.14 (10) mg | No. dead ([1]; 6.25 ppm, 21 days after feeding, 10 larvae): 0 | Days for pupation ([1]; 12.5 ppm): 25.2 days and 25.8 days | % wt reduction to control ([1]; 12.5 ppm, 7 days after feeding): 39.67% and 36.72% | Mean wt of survived larvae, mg ([1]; 12.5 ppm, 7 days after feeding): 28.74 (10) mg and 31.22 (10) mg | No. dead ([1]; 12.5 ppm, 7 days after feeding, 10 larvae): 0 | % wt reduction to control [1, 4]: 32.84% and 33.04% | Mean wt of survived larvae, mg [1, 4]: 111.56 (10) mg and 98.08 (10) mg | No. dead ([1]; 12.5 ppm, 21 days after feeding, 10 larvae): 0 | Days for pupation ([1]; 25 ppm): 27.25 days and 27.0 days | % wt reduction to control ([1]; 25 ppm, 7 days after feeding): 66.06% and 65.00% | Mean wt of survived larvae, mg ([1]; 25 ppm, 7 days after feeding): 16.17 (8) mg and 17.26 (6) mg | No. dead ([1]; 25 ppm, 7 days after feeding, 10 larvae): 2 and 4 | % wt reduction to control ([1]; 25 ppm, 21 days after feeding): 70.08% and 70.62% | Mean wt of survived larvae, mg ([1]; 25 ppm, 21 days after feeding): 49.70 (6) mg and 43.03 (6) mg | No. dead ([1]; 25 ppm, 21 days after feeding, 10 larvae): 4 | Days for pupation ([1]; 50 ppm in (Hepes)): 24.6 days | Mean wt of survived larvae, mg ([1]; 50 ppm in (Hepes), 7 days after feeding): 43.33 mg | No. dead ([1]; 50 ppm in (Hepes), 7 days after feeding, 10 larvae): 0 | Mean wt of survived larvae, mg ([1]; 50 ppm in (Hepes), 21 days after feeding): 137.36 mg | No. dead ([1]; 50 ppm in (Hepes), 21 days after feeding, 10 larvae): 0 | % wt reduction to control ([1]; 50 ppm, 7 days after feeding): 87.93% and 92.70% | Mean wt of survived larvae ([1]; 50 ppm, 7 days after feeding): 43.33 mg | Mean wt of survived larvae, mg ([1]; 50 ppm, 7 days after feeding): 5.75 (4) mg and 3.60 (1) mg | No. dead ([1]; 50 ppm, 7 days after feeding, 10 larvae): 6 and 8 | # surviving [1, 5]: 10 | No. dead [1, 5]: 0 | % wt reduction to control ([1]; 50 ppm, 21 days after feeding): 0% | Mean wt of survived larvae ([1]; 50 ppm, 21 days after feeding): 137.36 mg | Mean wt of survived larvae, mg ([1]; 50 ppm, 21 days after feeding): 0 mg | No. dead ([1]; 50 ppm, 21 days after feeding, 10 larvae): 10 | # surviving [1, 6]: 10 | No. dead [1, 6]: 0 | mortality at 6.25 ppm ([1]; 168 h, 6.25 ppm, 7 days after feeding): 0% | mortality at 12.5 ppm ([1]; 168 h, 12.5 ppm, 7 days after feeding): 0% | mortality at 25 ppm ([1]; 168 h, 25 ppm, 7 days after feeding): 20% | mortality at 50 ppm ([1]; 168 h, 50 ppm in (Hepes), 7 days after feeding): 0% | mortality at 6.25 ppm ([1]; 504 h, 6.25 ppm, 21 days after feeding): 0% | mortality at 12.5 ppm ([1]; 504 h, 12.5 ppm, 21 days after feeding): 0% | mortality at 25 ppm ([1]; 504 h, 25 ppm, 21 days after feeding): 40% | mortality at 50 ppm ([1]; 504 h, 50 ppm in (Hepes), 21 days after feeding): 0% | Eggs Hatched % ([2]; 2 ppm, 24 hr): 10% | Eggs Hatched % C* (% hatch, normalized to control) ([2]; 2 ppm, 24 hr): 100% | Eggs Hatched No. ([2]; 2 ppm, 24 hr): 66 | Eggs Hatched % ([2]; 2 ppm, 72 hr): 14% | Eggs Hatched % C* (% hatch, normalized to control) ([2]; 2 ppm, 72 hr): 87% | Eggs Hatched No. ([2]; 2 ppm, 72 hr): 95 | Eggs Hatched % ([2]; 2 ppm, 120 hr): 19% | Eggs Hatched % C* (% hatch, normalized to control) ([2]; 2 ppm, 120 hr): 86% | Eggs Hatched No. ([2]; 2 ppm, 120 hr): 128 | Eggs Hatched % ([2]; 2 ppm, 168 hr): 22% | Eggs Hatched % C* (% hatch, normalized to control) ([2]; 2 ppm, 168 hr): 79% | Eggs Hatched No. ([2]; 2 ppm, 168 hr): 162 | Eggs Hatched % ([2]; 5 ppm, 24 hr): 9% | Eggs Hatched % C* (% hatch, normalized to control) ([2]; 5 ppm, 24 hr): 90% | Eggs Hatched No. ([2]; 5 ppm, 24 hr): 62 | Eggs Hatched % ([2]; 5 ppm, 72 hr): 13% | Eggs Hatched % C* (% hatch, normalized to control) ([2]; 5 ppm, 72 hr): 81% | Eggs Hatched No. ([2]; 5 ppm, 72 hr): 91 | Eggs Hatched % ([2]; 5 ppm, 120 hr): 17% | Eggs Hatched % C* (% hatch, normalized to control) ([2]; 5 ppm, 120 hr): 77% | Eggs Hatched No. ([2]; 5 ppm, 120 hr): 129 | Eggs Hatched % ([2]; 5 ppm, 168 hr): 21% | Eggs Hatched % C* (% hatch, normalized to control) ([2]; 5 ppm, 168 hr): 75% | Eggs Hatched No. ([2]; 5 ppm, 168 hr): 159 | Eggs Hatched % ([2]; 10 ppm, 24 hr): 9% | Eggs Hatched % C* (% hatch, normalized to control) ([2]; 10 ppm, 24 hr): 90% | Eggs Hatched No. ([2]; 10 ppm, 24 hr): 60 | Eggs Hatched % ([2]; 10 ppm, 72 hr): 13% | Eggs Hatched % C* (% hatch, normalized to control) ([2]; 10 ppm, 72 hr): 81% | Eggs Hatched No. ([2]; 10 ppm, 72 hr): 83 | Eggs Hatched % ([2]; 10 ppm, 120 hr): 15% | Eggs Hatched % C* (% hatch, normalized to control) ([2]; 10 ppm, 120 hr): 68% | Eggs Hatched No. ([2]; 10 ppm, 120 hr): 103 | Eggs Hatched % ([2]; 10 ppm, 168 hr): 18% | Eggs Hatched % C* (% hatch, normalized to control) ([2]; 10 ppm, 168 hr): 64% | Eggs Hatched No. ([2]; 10 ppm, 168 hr): 136 | Eggs Hatched % ([2]; 20 ppm, 24 hr): 8% | Eggs Hatched % C* (% hatch, normalized to control) ([2]; 20 ppm, 24 hr): 80% | Eggs Hatched No. ([2]; 20 ppm, 24 hr): 51 | Eggs Hatched % ([2]; 20 ppm, 72 hr): 11% | Eggs Hatched % C* (% hatch, normalized to control) ([2]; 20 ppm, 72 hr): 69% | Eggs Hatched No. ([2]; 20 ppm, 72 hr): 64 | Eggs Hatched % ([2]; 20 ppm, 120 hr): 12% | Eggs Hatched % C* (% hatch, normalized to control) ([2]; 20 ppm, 120 hr): 55% | Eggs Hatched No. ([2]; 20 ppm, 120 hr): 79 | Eggs Hatched % ([2]; 20 ppm, 168 hr): 15% | Eggs Hatched % C* (% hatch, normalized to control) ([2]; 20 ppm, 168 hr): 54% | Eggs Hatched No. ([2]; 20 ppm, 168 hr): 99 | Eggs Hatched % ([2]; 40 ppm, 24 hr): 7% | Eggs Hatched % C* (% hatch, normalized to control) ([2]; 40 ppm, 24 hr): 70% | Eggs Hatched No. ([2]; 40 ppm, 24 hr): 48 | Eggs Hatched % ([2]; 40 ppm, 72 hr): 10% | Eggs Hatched % C* (% hatch, normalized to control) ([2]; 40 ppm, 72 hr): 62% | Eggs Hatched No. ([2]; 40 ppm, 72 hr): 55 | Eggs Hatched % ([2]; 40 ppm, 120 hr): 10% | Eggs Hatched % C* (% hatch, normalized to control) ([2]; 40 ppm, 120 hr): 45% | Eggs Hatched No. ([2]; 40 ppm, 120 hr): 63 | Eggs Hatched % ([2]; 40 ppm, 168 hr): 11% | Eggs Hatched % C* (% hatch, normalized to control) ([2]; 40 ppm, 168 hr): 39% | Eggs Hatched No. ([2]; 40 ppm, 168 hr): 75
